Drawing on patent publication US20190263799A1, “1H-IMIDAZO[4,5-B]PYRIDINYL AND 2-OXO-2,3-DIHYDRO-1H-IMIDAZO[4,5-B]PYRIDINYL HETEROCYCLIC BET BROMODOMAIN INHIBITORS” (ZENITH EPIGENETICS LTD., priority 2015, published 2019), this text covers IC50 for two compounds.

One experiment addresses T1, BRD4(1) (Homo sapiens, UniProt O60885).
T1 construct: N-terminally His-tagged bromodomains (BRD4(1) at 20 nM and BRD4(2) at 100 nM); made in house; host or cells: E. coli BL21(DE3)
The experiment in a line: Inhibition of tetra-acetylated histone H4 binding to individual BET bromodomains (AlphaScreen). Conditions: His-tagged BRD4(1) 20 nM, biotinylated tetra-acetylated histone H4 peptide, 30 min incubation; read-out: FRET activity BRD4(1). Here is the method:
Proteins were cloned and overexpressed with a N-terminal 6×His tag, then purified by nickel affinity followed by size exclusion chromatography. Briefly, E. coli BL21(DE3) cells were transformed with a recombinant expression vector encoding N-terminally Nickel affinity tagged bromodomains from Brd2, Brd3, Brd4. Cell cultures were incubated at 37° C. with shaking to the appropriate density and induced overnight with IPTG. The supernatant of lysed cells was loaded onto Ni-IDA column for purification. Eluted protein was pooled, concentrated and further purified by size exclusion chromatography. Fractions representing monomeric protein were pooled, concentrated, aliquoted, and frozen at −80° C. for use in subsequent experiments.
Binding of tetra-acetylated histone H4 peptide (Millipore) and BET bromodomains was confirmed by Amplified Luminescent Proximity Homogenous Assay (AlphaScreen). N-terminally His-tagged bromodomains (BRD4(1) at 20 nM and BRD4(2) at 100 nM) and biotinylated tetra-acetylated histone H4 (10-25 nM) were incubated in the presence of nickel chelate acceptor beads and streptavidin donor beads (PerkinAlmer, 6760000K) added to a final concentration of 2 μg/mL under green light in a white 96 well microtiter plate (Greiner). For inhibition assays, serially diluted compounds were added to the reaction mixtures in a 0.1% final concentrations of DMSO. Final buffer concentrations were 50 mM HEPES, 100 mM NaCl and 0.1% BSA buffer, pH 7.4 and optimized to 30 min incubation time. Assay plates were read at 570 nm on a Synergy H4 Plate Reader (Biotek). IC50 values were determined from a dose response curve.
In general terms: In Alpha technology, singlet oxygen from a donor bead excites a nearby acceptor bead.

Experiment [1] relates to MV4-11 cells. The experiment in a line: Washout proliferation: durability of proliferation inhibition in MV4-11 cells. Type of experiment: cell-based. Particulars: Homo sapiens. The protocol:
FIG. 1 depicts inhibition of proliferation. […] MV4-11 cells were treated for 16 hours after which compounds were removed, cells washed 3 times with media, replaced with media and proliferation was measured at 72 h post washout.
MV4-11 cells (CRL-9591) were plated at a density of 5×10^4 cells per well in 96 well flat bottom plates and treated with increasing concentrations of compounds or DMSO (0.1%) in IMDM media containing 10% FBS and penicillin/streptomycin. Triplicate wells were used for each concentration and a well containing only media was used as a control. Plates were incubated at 37° C., 5% CO2 for 16 h after which the compounds were removed, replaced with media, and proliferation was measured at 72 hours post washout by adding 100 μL of the Cell Titer Fluor 96 Cell Viability Assay (Promega). After the incubation for 45 min at 37° C. with 5% CO2 fluorescence is read on the Synergy plate reader set at 380-400 nm Ex/505 nm. Percentage of cell viability to DMSO-treated cells was calculated after correcting for background by subtracting the blank well's signal. IC50 values were calculated using the GraphPad Prism software from the dose-dependent inhibition of proliferation.

For the next experiment, the system named is BCL2. Put plainly: Durability of BCL2 expression inhibition after washout in MV4-11 cells. Particulars: Homo sapiens. It counts as cell-based. The protocol: (§1) MV4-11 cells were treated for 3 hours after which compounds were removed, cells washed with media 3 times, replaced with media; harvest was performed 5 hours post washout and the expression of MYC and BCL2 was determined.
(§2) MV4-11 cells (CRL-9591) were plated at a density of 2.5×10^4 cells per well in 96 well U-bottom plates and treated with increasing concentrations of test compound or DMSO (0.1%) in IMDM media containing 10% FBS and penicillin/streptomycin, and incubated for […] 37° C. after which the compounds are removed, replaced with media and cells were harvested at 5 hours post washout. Triplicate wells were used for each concentration. Cells were pelleted by centrifugation and harvested using the mRNA Catcher PLUS kit according to manufacturer's instructions. The eluted mRNA isolated was then used in a one-step quantitative real-time PCR reaction, using components of the RNA UltraSense™ One-Step Kit (Life Technologies) together with Applied Biosystems TaqMan® primer-probes for cMYC and Cyclophilin. Real-time PCR plates were run on a ViiA™7 real time PCR machine (Applied Biosystems), data was analyzed, normalizing the Ct values for MYC and BCL2 to an internal control, prior to determining the fold expression of each sample, relative to the control.

The test system of another experiment is MYC. Put plainly: Durability of MYC expression inhibition after washout in MV4-11 cells. It counts as cell-based. Conditions: Homo sapiens. The protocol: as §1, §2
Another experiment has as its system cMYC. Put plainly: Inhibition of cMYC expression in cancer cell lines (MV4-11, real-time PCR). It counts as cell-based. Particulars: Homo sapiens, read-out: Myc activity. Here is the method:
MV4-11 cells (CRL-9591) were plated at a density of 2.5×10^4 cells per well in 96 well U-bottom plates and treated with increasing concentrations of test compound or DMSO (0.1%) in IMDM media containing 10% FBS and penicillin/streptomycin, and incubated for 3 h at 37° C. Triplicate wells were used for each concentration. Cells were pelleted by centrifugation and harvested using the mRNA Catcher PLUS kit according to manufacturer's instructions. The eluted mRNA isolated was then used in a one-step quantitative real-time PCR reaction, using components of the RNA UltraSense™ One-Step Kit (Life Technologies) together with Applied Biosystems TaqMan® primer-probes for cMYC and Cyclophilin. Real-time PCR plates were run on a ViiA™7 real time PCR machine (Applied Biosystems), data were analyzed, normalizing the Ct values for cMYC to an internal control, prior to determining the fold expression of each sample, relative to the control.
(Real-time PCR tracks product formation cycle by cycle.)

For experiment [2], the system named is MV4-11 cells. The experiment in a line: Inhibition of cell proliferation in cancer cell lines (MV4-11, CellTiter Aqueous One). Type of experiment: cell-based. Conditions: Homo sapiens, read-out: Proliferation activity. Here is the method: MV4-11 cells (CRL-9591) were plated at a density of 5×10^4 cells per well in 96 well flat bottom plates and treated with increasing concentrations of test compound or DMSO (0.1%) in IMDM media containing 10% FBS and penicillin/streptomycin. Triplicate wells were used for each concentration and a well containing only media was used as a control. Plates were incubated at 37° C., 5% CO2 for 72 h before adding 20 μL of the CellTiter Aqueous One Solution (Promega) to each well and incubating at 37° C., 5% CO2 for an additional 3-4 h. The absorbance was read at 490 nm in a spectrophotometer and the percentage of cell titer relative to DMSO-treated cells was calculated after correcting for background by subtracting the blank well's signal. IC50 values were calculated using the GraphPad Prism software.

Read-outs that look alike come from different tables or passages of the source.

`C=CC(=O)N(C)c1cnc2nc(N3CCCC3)n(Cc3ccccc3)c2c1` [Example 15, N-(1-Benzyl-2-(pyrrolidin-1-yl)-1H-imidazo[4,5-b]pyridin-6-yl)-N-methylacrylamide]: the IC50 was not above 0.3 µM at BRD4(1); 5.98 µM in the experiment on MV4-11 cells [1] (MV4-11, read-out: IC50 of inhibition of proliferation after 72 hours of compound removal); 7.9 µM in the experiment with BCL2 (MV4-11, read-out: IC50 of BCL2 inhibition at 5 hours post washout); 23 µM in the experiment on MYC (MV4-11, read-out: IC50 of sustained MYC inhibition at 5 h post washout); 0.3 to 3 µM with cMYC (MV4-11, 3 h); 0.3 to 3 µM in the experiment on MV4-11 cells [2] (MV4-11, 72 h).

`CC(=O)N(C)c1cnc2nc(N3CCCC3)n(Cc3ccccc3)c2c1` [Example 18, N-(1-Benzyl-2-(pyrrolidin-1-yl)-1H-imidazo[4,5-b]pyridin-6-yl)-N-methylacetamide]: the IC50 at BRD4(1) is not above 0.3 µM; in the experiment with MV4-11 cells [1] (MV4-11 cells treated 16 h, washed, proliferation measured 72 h post washout, read-out: IC50 of inhibition of proliferation after 72 hours of compound removal) it was approximately 50 µM; in the experiment with BCL2 (MV4-11 cells treated 3 h, washed, harvested 5 h post washout, read-out: IC50 of BCL2 inhibition at 5 hours post washout), approximately 50 µM; in the experiment on MYC (MV4-11 cells treated 3 h, washed, harvested 5 h post washout, read-out: IC50 of sustained MYC inhibition at 5 h post washout) it was 29 µM; in the experiment with cMYC (MV4-11 cells, 3 h incubation, cMYC mRNA), 0.3 to 3 µM; in the experiment on MV4-11 cells [2] (MV4-11 cells, 72 h incubation), 0.3 to 3 µM.
